Assay results: patent publication US20160296499A1, “Spiroindoline Antiparasitic Derivatives” (ZOETIS SERVICES LLC, priority 2013, published 2016)
Where two headings read alike, the source gives them in different places.

Legend:
Haemonchus contortus L3 = test: Haemonchus contortus, Larvae Stage 3 (HcL3) In Vitro Assay; details: Haemonchus contortus
[1] = test system: Dirofilaria immitis microfilariae; test: Dirofilaria immitis, Microfilariae (DiMF) In Vitro Assay
[2] = target: T1, bovine vesicular acetylcholine transporter (VAChT) (Bos taurus, UniProt E1BK36); test: Radioligand Binding Assay; details: Bovine binding Ki, CHO-K1 membranes with recombinant bovine VAChT, [3H]Compound X6 0.3 nM
T1 sequence (E1BK36 1-524): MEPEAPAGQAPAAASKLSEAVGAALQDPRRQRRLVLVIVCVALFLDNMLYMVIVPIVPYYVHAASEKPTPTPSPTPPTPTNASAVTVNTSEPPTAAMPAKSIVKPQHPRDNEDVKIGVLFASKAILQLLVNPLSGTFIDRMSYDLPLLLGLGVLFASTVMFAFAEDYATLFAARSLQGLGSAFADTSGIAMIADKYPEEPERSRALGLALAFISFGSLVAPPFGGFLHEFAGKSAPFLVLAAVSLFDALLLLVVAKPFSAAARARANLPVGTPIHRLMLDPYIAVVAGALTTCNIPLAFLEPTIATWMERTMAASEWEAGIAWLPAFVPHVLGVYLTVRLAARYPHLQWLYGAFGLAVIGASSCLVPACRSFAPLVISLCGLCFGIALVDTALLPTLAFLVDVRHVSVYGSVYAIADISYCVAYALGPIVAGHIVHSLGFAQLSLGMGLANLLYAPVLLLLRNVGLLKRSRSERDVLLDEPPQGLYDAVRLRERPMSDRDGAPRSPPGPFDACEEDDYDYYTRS

[3] = 96 h, read-out: HcL3 MEC, Minimal Effective Concentration whereby worm motility is inhibited by approximately 70%, 37° C., tested 0.001-100 μM
[4] = Dirofilaria immitis, 72 h, read-out: Di MF, MEC, decrease in microfilariae motility by visual assessment, curve starting at 100 μM
[5] = 96 hours, 37° C., read-out: HcL3 MEC
[6] = Dirofilaria immitis, 72 hours, read-out: Di MF

SMILES	minimal effective concentration (Haemonchus contortus L3; [3]) [µM]	minimal effective concentration [1, 4] [µM]	Ki [2] [nM]	minimal effective concentration (Haemonchus contortus L3; [5]) [µM]	minimal effective concentration [1, 6] [µM]	minimal effective concentration ([1]; MEC, decrease in microfilariae motility by visual assessment, 72 hours, curve starting at 100 μM, read-out: Di MF) [µM]
O=C(NCc1ccnc(Cl)c1)N1CC2(CCN(C/C=C/c3ccc(C(F)(F)F)cc3)CC2)c2cc(Cl)c(F)cc21 [Example 128, (E)-5-chloro-N-((2-chloropyridin-4-yl)methyl)-6-fluoro-1′-(3-(4-(trifluoromethyl)phenyl)allyl)spiro[indoline-3,4′-piperidine]-1-carboxamide]	1	3.3	44	–	–	–
O=C(NCc1ccnc(Cl)c1)N1CC2(CCN(C/C=C/c3ccc(Cl)c(Cl)c3)CC2)c2cc(F)c(C(F)(F)F)cc21 [Example 129, (E)-N-((2-chloropyridin-4-yl)methyl)-1′-(3-(3,4-dichlorophenyl)allyl)-5-fluoro-6-(trifluoromethyl)spiro[indoline-3,4′-piperidine]-1-carboxamide]	–	–	32.8	1.5	10	–
O=C(NCc1ccnc(Cl)c1)N1CC2(CCN(C/C=C/c3ccc(OC(F)(F)F)cc3)CC2)c2ccc(C(F)(F)F)cc21 [Example 130, (E)-N-((2-chloropyridin-4-yl)methyl)-1′-(3-(4-(trifluoromethoxy)phenyl)allyl)-6-(trifluoromethyl)spiro[indoline-3,4′-piperidine]-1-carboxamide]	1.8	18.2	193	–	–	–
O=C(NCc1ccnc(Cl)c1)N1CC2(CCN(C/C=C/c3ccc(Cl)c(Cl)c3)CC2)c2c(Cl)cccc21 [Example 131, (E)-4-chloro-N-((2-chloropyridin-4-yl)methyl)-1′-(3-(3,4-dichlorophenyl)allyl) spiro[indoline-3,4′-piperidine]-1-carboxamide]	3.3	10	184	–	–	–
N#Cc1cc2c(cc1C(F)(F)F)N(C(=O)NCc1ccnc(Cl)c1)CC21CCN(C/C=C/c2ccc(Cl)c(Cl)c2)CC1 [Example 132, (E)-N-((2-chloropyridin-4-yl)methyl)-5-cyano-1′-(3-(3,4-dichlorophenyl)allyl)-6-(trifluoromethyl)spiro[indoline-3,4′-piperidine]-1-carboxamide]	–	–	49.9	3.3	3.3	–
O=C(NCc1ccnc(Cl)c1)N1CC2(CCN(C/C=C/c3ccc(Cl)c(Cl)c3)CC2)c2cc(C(F)(F)F)ccc21 [Example 133, (E)-N-((2-chloropyridin-4-yl)methyl)-1′-(3-(3,4-dichlorophenyl)allyl)-5-(trifluoromethyl)spiro[indoline-3,4′-piperidine]-1-carboxamide]	–	–	546	3.3	7.6	–
O=C(NCc1ccnc(Cl)c1)N1CC2(CCN(C/C=C/c3ccc(Cl)c(Cl)c3)CC2)c2cc(Cl)c(C(F)(F)F)cc21 [Example 135, (E)-5-chloro-N-((2-chloropyridin-4-yl)methyl)-1′-(3-(3,4-dichlorophenyl)allyl)-6-(trifluoromethyl)spiro[indoline-3,4′-piperidine]-1-carboxamide]	–	–	118	3.3	57.4	–
O=C(NCc1ccnc(Cl)c1)N1CC2(CCN(C/C=C/c3ccc(Cl)c(Cl)c3)CC2)c2c1ccc(Cl)c2Cl [Example 136, (E)-4,5-dichloro-N-((2-chloropyridin-4-yl)methyl)-1′-(3-(3,4-dichlorophenyl)allyl)spiro[indoline-3,4′-piperidine]-1-carboxamide]	–	–	160	3.3	100	–
CN(C)c1ccc2c(c1)C1(CCN(C/C=C/c3ccc(Cl)c(Cl)c3)CC1)CN2C(=O)NCc1ccnc(Cl)c1 [Example 137, (E)-N-((2-chloropyridin-4-yl)methyl)-1′-(3-(3,4-dichlorophenyl)allyl)-5-(dimethylamino)spiro[indoline-3,4′-piperidine]-1-carboxamide]	3.3	10	516	–	–	–
O=C(NCc1ccnc(Cl)c1)N1CC2(CCN(C/C=C/c3ccc(C(F)(F)F)cc3)CC2)c2ccc(C(F)(F)F)cc21 [Example 138, (E)-N-((2-chloropyridin-4-yl)methyl)-6-(trifluoromethyl)-1′-(3-(4-(trifluoromethyl)phenyl)allyl)spiro[indoline-3,4′-piperidine]-1-carboxamide]	3.3	10	57.2	–	–	–
O=C(NCc1ccnc(Cl)c1)N1CC2(CCN(Cc3ccc4cc(F)ccc4c3)CC2)c2cc(Cl)ccc21 [Example 139, 5-chloro-N-((2-chloropyridin-4-yl)methyl)-1′-((6-fluoronaphthalen-2-yl)methyl)spiro[indoline-3,4′-piperidine]-1-carboxamide]	3.3	33	20.1	–	–	–
O=C(NCc1ccnc(Cl)c1)N1CC2(CCN(C/C=C/c3ccc(Cl)cc3)CC2)c2c1ccc(F)c2Cl [Example 140, (E)-4-chloro-1′-(3-(4-chlorophenyl)allyl)-N-((2-chloropyridin-4-yl)methyl)-5-fluorospiro[indoline-3,4′-piperidine]-1-carboxamide]	–	–	95.2	3.3	5.7	–
O=C(NCc1ccnc(Cl)c1)N1CC2(CCN(C/C=C/c3ccc(F)cc3)CC2)c2cc(Cl)c(Cl)cc21 [Example 141, (E)-5,6-dichloro-N-((2-chloropyridin-4-yl)methyl)-1′-(3-(4-fluorophenyl)allyl)spiro[indoline-3,4′-piperidine]-1-carboxamide]	–	–	164	3.3	4.4	–
O=C(NCc1ccnc(Cl)c1)N1CC2(CCN(C/C=C/c3ccc(Cl)cc3)CC2)c2cc(Cl)c(Cl)cc21 [Example 142, (E)-5,6-dichloro-1′-(3-(4-chlorophenyl)allyl)-N-((2-chloropyridin-4-yl)methyl)spiro[indoline-3,4′-piperidine]-1-carboxamide]	–	–	107	3.3	7.6	–
O=C(NCc1ccnc(Cl)c1)N1CC2(CCN(C/C=C/c3ccc(F)cc3)CC2)c2c1ccc(Cl)c2Cl [Example 143, (E)-4,5-dichloro-N-((2-chloropyridin-4-yl)methyl)-1′-(3-(4-fluorophenyl)allyl)spiro[indoline-3,4′-piperidine]-1-carboxamide]	–	–	114	3.3	5.7	–
O=C(NCc1ccnc(Cl)c1)N1CC2(CCN(C/C=C/c3ccc(Cl)cc3)CC2)c2c1ccc(Cl)c2Cl [Example 144, (E)-4,5-dichloro-1′-(3-(4-chlorophenyl)allyl)-N-((2-chloropyridin-4-yl)methyl)spiro[indoline-3,4′-piperidine]-1-carboxamide]	–	–	26.2	3.3	10	–
O=C(NCc1ccnc(Cl)c1)N1CC2(CCN(C/C=C/c3ccc(C(F)(F)F)cc3)CC2)c2cc(F)c(Cl)cc21 [Example 145, (E)-6-chloro-N-((2-chloropyridin-4-yl)methyl)-5-fluoro-1′-(3-(4-(trifluoromethyl)phenyl)allyl)spiro[indoline-3,4′-piperidine]-1-carboxamide]	3.3	5.7	47.4	–	–	–
O=C(NCc1ccnc(Cl)c1)N1CC2(CCN(C/C=C/c3ccc(Cl)c(Cl)c3)CC2)c2c1ccc(F)c2Cl [Example 146, (E)-4-chloro-N-((2-chloropyridin-4-yl)methyl)-1′-(3-(3,4-dichlorophenyl)allyl)-5-fluorospiro[indoline-3,4′-piperidine]-1-carboxamide]	3.3	5.7	21.7	–	–	–
O=C(NCc1ccnc(Cl)c1)N1CC2(CCN(C/C=C/c3ccc(Cl)cc3)CC2)c2cc(OC(F)(F)F)ccc21 [Example 147, (E)-1′-(3-(4-chlorophenyl)allyl)-N-((2-chloropyridin-4-yl)methyl)-5-(trifluoromethoxy)spiro[indoline-3,4′-piperidine]-1-carboxamide]	3.9	–	322	–	–	4.8
O=C(NCc1ccnc(F)c1)N1CC2(CCN(C/C=C/c3ccc(Cl)cc3)CC2)c2c(OC(F)(F)F)ccc(Cl)c21 [Example 148, (E)-7-chloro-1′-(3-(4-chlorophenyl)allyl)-N-((2-fluoropyridin-4-yl)methyl)-4-(trifluoromethoxy)spiro[indoline-3,4′-piperidine]-1-carboxamide]	100	3.3	2480	–	–	–
